According to patent US20240109865A1, “INDAZOLE COMPOUNDS AS KINASE INHIBITORS” (TYRA BIOSCIENCES, INC., priority 2020, published 2024):

Tests used:
Assay in all cases: Kinase assay, binding constants (Kd), kinase-tagged T7 phage, qPCR
FGFR4 = FGFR4 (Homo sapiens (Human), UniProt P22455)
Method: (§1) Kinase-tagged T7 phage strains were prepared in an E. coli host derived from the BL21 strain. E. coli were grown to log-phase and infected with T7 phage and incubated with shaking at 32° C. until lysis. The lysates were centrifuged and filtered to remove cell debris. Streptavidin-coated magnetic beads were treated with biotinylated small molecule ligands for 30 minutes at room temperature to generate affinity resins for kinase assays. The liganded beads were blocked with excess biotin and washed with blocking buffer SeaBlock (Pierce), […], 1 mM DTT to remove unbound ligand and to reduce non-specific binding.
(§2) Test compounds were prepared as 111λ stocks in 10000 DMS0. Kds were determined using an 11-point 3-fold compound dilution series with three DMSO control points. […] The compounds were then diluted directly into the assays such that the final concentration of DMSO was 0.9%. All reactions performed in polypropylene 384-well plate. Each was a final volume of 0.02 ml. […] The beads were then re-suspended in elution buffer (1×PBS, 0.05% Tween […] non-biotinylated affinity ligand) and incubated at room temperature with shaking for 30 minutes. The kinase concentration in the eluates was measured by qPCR.
(§3) Binding constants were calculated with a standard dose-response curve using the Hill equation: […]
(§4) The Hill Slope was set to −1. Curves were fitted using a non-linear least square fit with the Levenberg-Marquardt algorithm.

FGFR1 = FGFR1 (Homo sapiens (Human), UniProt P11362)
FGFR1, sequence (P11362 22-822): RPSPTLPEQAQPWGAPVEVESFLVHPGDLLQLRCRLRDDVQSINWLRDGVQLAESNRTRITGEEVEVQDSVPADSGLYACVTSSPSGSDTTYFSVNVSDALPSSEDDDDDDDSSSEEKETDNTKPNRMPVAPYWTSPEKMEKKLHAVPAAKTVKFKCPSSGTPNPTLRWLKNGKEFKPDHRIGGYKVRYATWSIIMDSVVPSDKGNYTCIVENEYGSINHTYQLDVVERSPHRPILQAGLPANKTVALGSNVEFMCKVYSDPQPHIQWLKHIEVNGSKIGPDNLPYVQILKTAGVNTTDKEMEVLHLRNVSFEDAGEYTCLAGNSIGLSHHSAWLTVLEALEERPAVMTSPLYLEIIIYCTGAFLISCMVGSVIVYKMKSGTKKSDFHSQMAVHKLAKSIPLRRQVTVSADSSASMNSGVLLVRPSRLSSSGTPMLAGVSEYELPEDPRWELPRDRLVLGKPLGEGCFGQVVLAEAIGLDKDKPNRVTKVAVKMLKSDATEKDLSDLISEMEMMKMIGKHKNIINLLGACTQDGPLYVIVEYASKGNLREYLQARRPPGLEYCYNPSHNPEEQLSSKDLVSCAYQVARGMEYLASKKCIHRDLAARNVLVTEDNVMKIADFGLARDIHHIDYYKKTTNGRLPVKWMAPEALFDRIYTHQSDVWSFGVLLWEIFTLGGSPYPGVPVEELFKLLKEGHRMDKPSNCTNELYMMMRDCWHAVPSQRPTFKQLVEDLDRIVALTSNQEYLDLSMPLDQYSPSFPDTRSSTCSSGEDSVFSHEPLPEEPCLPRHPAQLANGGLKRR
Method: as §1, §2, §3, §4

FGFR3 = FGFR3 (Homo sapiens (Human), UniProt P22607)
FGFR3, sequence (P22607 23-806): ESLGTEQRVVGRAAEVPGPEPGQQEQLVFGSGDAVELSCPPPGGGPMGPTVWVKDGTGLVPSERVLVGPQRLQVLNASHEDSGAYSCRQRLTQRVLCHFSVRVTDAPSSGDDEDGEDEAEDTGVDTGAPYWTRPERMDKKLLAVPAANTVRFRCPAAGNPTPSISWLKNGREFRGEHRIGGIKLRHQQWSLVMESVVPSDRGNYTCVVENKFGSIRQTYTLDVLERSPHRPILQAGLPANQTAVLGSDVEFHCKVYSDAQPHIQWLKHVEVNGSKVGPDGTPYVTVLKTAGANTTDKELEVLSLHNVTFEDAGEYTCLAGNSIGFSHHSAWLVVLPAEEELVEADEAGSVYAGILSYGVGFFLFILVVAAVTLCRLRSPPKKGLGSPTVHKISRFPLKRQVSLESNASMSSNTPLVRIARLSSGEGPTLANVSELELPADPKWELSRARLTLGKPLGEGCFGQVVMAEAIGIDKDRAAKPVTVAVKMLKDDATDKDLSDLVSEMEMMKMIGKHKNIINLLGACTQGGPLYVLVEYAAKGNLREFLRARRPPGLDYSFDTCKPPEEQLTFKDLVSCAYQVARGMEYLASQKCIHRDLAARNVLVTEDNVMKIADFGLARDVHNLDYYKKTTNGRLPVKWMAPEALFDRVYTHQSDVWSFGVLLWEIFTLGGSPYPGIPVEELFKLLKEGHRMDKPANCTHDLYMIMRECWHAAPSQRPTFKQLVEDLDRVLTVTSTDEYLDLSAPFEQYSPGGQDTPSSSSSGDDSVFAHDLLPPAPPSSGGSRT
Method: as §1, §2, §3, §4

FGFR2 = FGFR2 (Homo sapiens (Human), UniProt P21802)
FGFR2, sequence (P21802 22-821): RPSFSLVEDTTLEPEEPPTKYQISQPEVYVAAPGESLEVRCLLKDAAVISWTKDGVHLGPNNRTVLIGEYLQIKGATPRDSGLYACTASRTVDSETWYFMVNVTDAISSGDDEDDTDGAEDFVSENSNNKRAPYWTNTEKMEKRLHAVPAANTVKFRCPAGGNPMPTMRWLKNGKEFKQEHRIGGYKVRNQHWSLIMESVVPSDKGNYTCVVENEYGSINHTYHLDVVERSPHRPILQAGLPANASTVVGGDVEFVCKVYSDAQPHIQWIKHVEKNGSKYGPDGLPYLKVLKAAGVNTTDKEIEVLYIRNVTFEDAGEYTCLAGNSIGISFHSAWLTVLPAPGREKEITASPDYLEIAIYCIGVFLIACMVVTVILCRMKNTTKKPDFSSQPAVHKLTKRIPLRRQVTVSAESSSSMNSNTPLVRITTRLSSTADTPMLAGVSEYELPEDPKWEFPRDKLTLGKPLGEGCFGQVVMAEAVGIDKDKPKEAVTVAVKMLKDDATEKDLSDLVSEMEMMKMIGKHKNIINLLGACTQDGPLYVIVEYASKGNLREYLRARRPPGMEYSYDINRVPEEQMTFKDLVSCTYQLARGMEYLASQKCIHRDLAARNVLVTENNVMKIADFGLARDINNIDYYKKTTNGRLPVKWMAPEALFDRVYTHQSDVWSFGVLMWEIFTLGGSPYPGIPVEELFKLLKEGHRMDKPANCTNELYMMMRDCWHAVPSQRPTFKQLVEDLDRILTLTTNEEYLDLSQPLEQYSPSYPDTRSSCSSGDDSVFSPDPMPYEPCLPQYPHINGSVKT
Method: as §1, §2, §3, §4

FGFR3 (V555M) = FGFR3 (V555M) (Homo sapiens (Human), UniProt P22607, V555M); settings: V555M mutant
FGFR3 (V555M), sequence (P22607 23-806 V555M): as the sequence (P22607 23-806) above, with V533M counted along it
Method: as §1, §2, §3, §4

FGFR4, sequence (P22455 22-802): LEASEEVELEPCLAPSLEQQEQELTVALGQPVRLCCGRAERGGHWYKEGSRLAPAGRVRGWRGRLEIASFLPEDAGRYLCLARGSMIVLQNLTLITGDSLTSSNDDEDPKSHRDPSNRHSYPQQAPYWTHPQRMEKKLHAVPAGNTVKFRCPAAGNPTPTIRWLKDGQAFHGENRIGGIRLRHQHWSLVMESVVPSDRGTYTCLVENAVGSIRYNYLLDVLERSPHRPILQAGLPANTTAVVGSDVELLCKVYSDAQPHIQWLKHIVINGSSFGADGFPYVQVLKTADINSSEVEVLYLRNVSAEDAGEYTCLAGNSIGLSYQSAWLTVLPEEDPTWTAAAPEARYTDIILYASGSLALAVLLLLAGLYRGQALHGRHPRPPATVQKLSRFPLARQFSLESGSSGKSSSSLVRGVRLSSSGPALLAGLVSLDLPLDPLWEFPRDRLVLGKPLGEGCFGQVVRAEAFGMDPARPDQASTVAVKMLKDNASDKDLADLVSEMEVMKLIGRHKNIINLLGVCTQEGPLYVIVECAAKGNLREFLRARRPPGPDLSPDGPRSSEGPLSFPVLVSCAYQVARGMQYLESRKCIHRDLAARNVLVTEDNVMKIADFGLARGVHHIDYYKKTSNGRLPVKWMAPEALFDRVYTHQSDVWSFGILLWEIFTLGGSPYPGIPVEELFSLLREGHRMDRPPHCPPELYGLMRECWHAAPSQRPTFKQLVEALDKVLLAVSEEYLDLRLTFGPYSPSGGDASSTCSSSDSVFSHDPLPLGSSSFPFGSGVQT

Kd (FGFR4) [nM]	Kd (FGFR1) [nM]	Kd (FGFR3) [nM]	Kd (FGFR2) [nM]	Kd (FGFR3 (V555M)) [nM]	Structure (SMILES)
20 to 100	1 to 20	1 to 20	1 to 20	1 to 20	CC(C)N1CCC(n2cc(-c3n[nH]c4ccc(O[C@H](C)c5c(Cl)cncc5Cl)cc34)cn2)CC1 [Example 83, 5-[(1R)-1-(3,5-dichloro-4-pyridyl)ethoxy]-3-[1-(1-isopropyl-4-piperidyl)pyrazol-4-yl]-1H-indazole]
20 to 100	1 to 20	1 to 20	1 to 20	1 to 20	CC(C)N1CC[C@@H](n2cc(-c3n[nH]c4ccc(O[C@H](C)c5c(Cl)cncc5Cl)cc34)cn2)C1 [Example 84, 5-[(1R)-1-(3,5-dichloro-4-pyridyl)ethoxy]-3-[(1R)-1-(1-isopropylpyrrolidin-3-yl)pyrazol-4-yl]-1H-indazole]
1 to 20	1 to 20	1 to 20	1 to 20	1 to 20	C[C@@H](Oc1ccc2[nH]nc(-c3cnn(C4CNC4)c3)c2c1)c1c(Cl)cncc1Cl [Example 85, 3-[1-(azetidin-3-yl)pyrazol-4-yl]-5-[(1R)-1-(3,5-dichloro-4-pyridyl)ethoxy]-1H-indazole]
1 to 20	1 to 20	1 to 20	1 to 20	1 to 20	CC(C)N1CC(n2cc(-c3n[nH]c4ccc(O[C@H](C)c5c(Cl)cncc5Cl)cc34)cn2)C1 [Example 86, 5-[(1R)-1-(3,5-dichloro-4-pyridyl)ethoxy]-3-[1-(1-isopropylazetidin-3-yl)pyrazol-4-yl]-1H-indazole]
20 to 100	1 to 20	1 to 20	1 to 20	1 to 20	CCN1CC[C@H](n2cc(-c3n[nH]c4ccc(O[C@H](C)c5c(Cl)cncc5Cl)cc34)cn2)C1 [Example 89, 5-[(1R)-1-(3,5-dichloro-4-pyridyl)ethoxy]-3-[1-[(3S)-1-ethylpyrrolidin-3-yl]pyrazol-4-yl]-1H-indazole]
1 to 20	1 to 20	1 to 20	1 to 20	1 to 20	C[C@@H](Oc1ccc2[nH]nc(-c3ccc(N4CC5(CCN5)C4)nc3)c2c1)c1c(Cl)cncc1Cl [Example 99, 3-[6-(1,6-diazaspiro[3.3]heptan-6-yl)-3-pyridyl]-5-[(1R)-1-(3,5-dichloro-4-pyridyl)ethoxy]-1H-indazole]
1 to 20	20 to 100	1 to 20	20 to 100	1 to 20	Cc1cc(-c2n[nH]c3ccc(O[C@H](C)c4c(Cl)cncc4Cl)cc23)cnc1N1CCOCC1 [Example 101, 4-[5-[5-[(1R)-1-(3,5-dichloro-4-pyridyl)ethoxy]-1H-indazol-3-yl]-3-methyl-2-pyridyl]morpholine]
1 to 20	20 to 100	1 to 20	20 to 100	1 to 20	C[C@@H](Oc1ccc2[nH]nc(-c3cnc(N4CCOCC4)c(C#N)c3)c2c1)c1c(Cl)cncc1Cl [Example 102, 5-[5-[(1R)-1-(3,5-dichloro-4-pyridyl)ethoxy]-1H-indazol-3-yl]-2-morpholino-pyridine-3-carbonitrile]
1 to 20	1 to 20	1 to 20	20 to 100	1 to 20	C[C@@H](Oc1ccc2[nH]nc(-c3ccc(N4CCOCC4)cn3)c2c1)c1c(Cl)cncc1Cl [Example 103, 4-[6-[5-[(1R)-1-(3,5-dichloro-4-pyridyl)ethoxy]-1H-indazol-3-yl]-3-pyridyl]morpholine]
20 to 100	> 300	100 to 300	> 300	100 to 300	COc1cc(-c2n[nH]c3ccc(O[C@H](C)c4c(Cl)cncc4Cl)cc23)cnc1N1CCOCC1 [Example 105, 4-[5-[5-[(1R)-1-(3,5-dichloro-4-pyridyl)ethoxy]-1H-indazol-3-yl]-3-methoxy-2-pyridyl]morpholine]
1 to 20	1 to 20	1 to 20	1 to 20	1 to 20	C[C@@H](Oc1ccc2[nH]nc(-c3ccc(N4CC5(CCNCC5)C4)nc3)c2c1)c1c(Cl)cncc1Cl [Example 110, 3-[6-(2,7-diazaspiro[3.5]nonan-2-yl)-3-pyridyl]-5-[(1R)-1-(3,5-dichloro-4-pyridyl)ethoxy]-1H-indazole]
1 to 20	1 to 20	1 to 20	20 to 100	1 to 20	C[C@@H](Oc1ccc2[nH]nc(-c3cnc(N4CC5(CNC5)C4)nc3)c2c1)c1c(Cl)cncc1Cl [Example 118, 3-[2-(2,6-diazaspiro[3.3]heptan-2-yl)pyrimidin-5-yl]-5-[(1R)-1-(3,5-dichloro-4-pyridyl)ethoxy]-1H-indazole]
1 to 20	100 to 300	1 to 20	100 to 300	1 to 20	CCOC(=O)N1CCC2(CC1)CN(c1ncc(-c3n[nH]c4ccc(O[C@H](C)c5c(Cl)cncc5Cl)cc34)cn1)C2 [Example 126, ethyl 2-[5-[5-[(1R)-1-(3,5-dichloro-4-pyridyl)ethoxy]-1H-indazol-3-yl]pyrimidin-2-yl]-2,7-diazaspiro[3.5]nonane-7-carboxylate]
1 to 20	1 to 20	1 to 20	1 to 20	1 to 20	C[C@@H](Oc1ccc2[nH]nc(-c3cnc(N4CC5(CCCNC5)C4)nc3)c2c1)c1c(Cl)cncc1Cl [Example 132, 3-[2-(2,8-diazaspiro[3.5]nonan-2-yl)pyrimidin-5-yl]-5-[(1R)-1-(3,5-dichloro-4-pyridyl)ethoxy]-1H-indazole]
1 to 20	1 to 20	1 to 20	1 to 20	1 to 20	C[C@@H](Oc1ccc2[nH]nc(-c3cnc(N4CC5(CCNCC5)C4)nc3)c2c1)c1c(Cl)cncc1Cl [Example 133, 3-[2-(2,7-diazaspiro[3.5]nonan-2-yl)pyrimidin-5-yl]-5-[(1R)-1-(3,5-dichloro-4-pyridyl)ethoxy]-1H-indazole]
1 to 20	20 to 100	1 to 20	20 to 100	1 to 20	C[C@@H](Oc1ccc2[nH]nc(-c3cnc(N4CC5(CCCN(S(C)(=O)=O)C5)C4)nc3)c2c1)c1c(Cl)cncc1Cl [Example 134, 5-[(1R)-1-(3,5-dichloro-4-pyridyl)ethoxy]-3-[2-(8-methylsulfonyl-2,8-diazaspiro[3.5]nonan-2-yl)pyrimidin-5-yl]-1H-indazole]
> 300	> 300	> 300	> 300	> 300	Cc1cnnc(C)c1[C@H](C)Oc1ccc2[nH]nc(-c3cnc(N4CC5(CCS(=O)(=O)C5)C4)nc3)c2c1 [Example 147, 2-[5-[5-[(1S)-1-(3,5-dimethylpyridazin-4-yl)ethoxy]-1H-indazol-3-yl]pyrimidin-2-yl]-6λ^6-thia-2-azaspiro[3.4]octane 6,6-dioxide]
100 to 300	> 300	20 to 100	100 to 300	20 to 100	Cc1cnnc(C)c1[C@H](C)Oc1ccc2[nH]nc(-c3ccc(N4CC5(C4)CN(S(C)(=O)=O)C5)nc3)c2c1 [Example 149, 5-[(1S)-1-(3,5-dimethylpyridazin-4-yl)ethoxy]-3-[6-(2-methylsulfonyl-2,6-diazaspiro[3.3]heptan-6-yl)-3-pyridyl]-1H-indazole]
1 to 20	1 to 20	1 to 20	1 to 20	1 to 20	COC(=O)N1CC2(C1)CN(c1ccc(-c3n[nH]c4ccc(O[C@H](C)c5c(C)cnnc5C)cc34)cn1)C2 [Example 150, methyl 6-[5-[5-[(1R)-1-(3,5-dimethylpyridazin-4-yl)ethoxy]-1H-indazol-3-yl]-2-pyridyl]-2,6-diazaspiro[3.3]heptane-2-carboxylate]
100 to 300	> 300	20 to 100	100 to 300	1 to 20	CCOC(=O)N1CC2(C1)CN(c1ccc(-c3n[nH]c4ccc(O[C@@H](C)c5c(C)cnnc5C)cc34)cn1)C2 [Example 151, ethyl 6-[5-[5-[(1S)-1-(3,5-dimethylpyridazin-4-yl)ethoxy]-1H-indazol-3-yl]-2-pyridyl]-2,6-diazaspiro[3.3]heptane-2-carboxylate]
1 to 20	20 to 100	1 to 20	1 to 20	1 to 20	Cc1cnnc(C)c1[C@@H](C)Oc1ccc2[nH]nc(-c3cnc(N4CCC5(CC4)CCS(=O)(=O)C5)nc3)c2c1 [Example 152, 8-[5-[5-[(1R)-1-(3,5-dimethylpyridazin-4-yl)ethoxy]-1H-indazol-3-yl]pyrimidin-2-yl]-2λ^6-thia-8-azaspiro[4.5]decane 2,2-dioxide]
100 to 300	> 300	20 to 100	100 to 300	1 to 20	COC(=O)N1CC2(C1)CN(c1ccc(-c3n[nH]c4ccc(O[C@@H](C)c5c(C)cnnc5C)cc34)cn1)C2 [Example 153, methyl 6-[5-[5-[(1S)-1-(3,5-dimethylpyridazin-4-yl)ethoxy]-1H-indazol-3-yl]-2-pyridyl]-2,6-diazaspiro[3.3]heptane-2-carboxylate]
